Measurements reported in patent US9128100B2, “Non-invasive diagnostic method for the evaluation of intestinal lactase deficiency (hypolactasia)” (Venter Pharma, S.L., priority 2012, dated 2015).
“And” between values parts separate entries of the source, which are not always exact repeats. Equal values may be shown once.

Experiments:
intestinal lactase [1] = target: T1, intestinal lactase (Homo sapiens, UniProt P09848); assay: Urinary excretion of xylose after single oral doses of 4-GX in healthy volunteers; format: in vivo
T1 construct: after its oral administration it is hydrolysed by the intestinal mucosa enzyme; from tissue; host or cells: small-intestinal mucosa (enterocyte brush border) of living human volunteers and patients, in vivo
Protocol: Two groups of subjects were selected. […] Firstly, the lowest suitable oral dose of 4-GX administered to healthy volunteers was determined that enabled reliable detection (in terms of accuracy and reproducibility) of xylose levels in urine and blood via the analytical method to be used. In addition, the tolerance of these subjects to the various doses of 4-GX used in the test and the pharmacokinetics for each dose administered were analysed, both in urine and blood. The doses of 4-GX used were: 0.125 g, 0.250 g, 0.5 g, 1 g, 3 g and 6 g in addition to placebo in 12 healthy volunteers with washout period between doses of between three and seven days. It should be appreciated that the 4-GX doses can include small quantities of water which remain subsequent to the drying process of the 4-GX product. For example, the 4-GX product can contain about 8 wt % to about 12 wt %, most likely about 10 wt % water, based on the total weight of the product. […] In each study period, an ascending dose of 4-GX was administered and the serum and urine concentrations of xylose were measured at various times up to 8 hours following the administration of the drug.
The main measured variable was the quantity of xylose in urine collected following oral administration of 4-GX at the following times: basal, 0-1 h, 1-2 h, 2-3 h, 3-4 h, 4-5 h, 5-6 h, 6-7 h and 7-8 h. […]

intestinal lactase [2] = target: T1, intestinal lactase; assay: 4-GX test in 4-hour urine, patients with symptoms suggestive of lactose intolerance; format: in vivo
Protocol: The diagnostic tests to which these patients were subjected were: • Intestinal biopsy: determining intestinal lactase activity therein. • Hydrogen breath test after the oral administration to patients of 50 g of lactose. While this test was being carried out, several capillary-blood glucose test (Glycemia tests) were carried out, calculating the highest increase observed in the blood glucose concentration compared to basal glucose level before starting the test. • 4-GX test in total urine at 0-4 and 0-5 hours, which was orally administered to patients 0.5 g of this product (or 0.45 g in a 4-GX sample including 10 wt % water), collecting the total urine accumulated over 0-4 h and 0-5 h following the administration of 4-GX and determining the amount of excreted xylose in both volumes of urine. • 4-GX test in blood which was orally administered to patients 3 g of this product (or 2.7 g in a 4-GX sample including 10 wt % water) to determine the concentration of plasma xylose in a blood sample 90 minutes after ingestion of the product. The concentration obtained was compared to a basal blood sample extracted before ingestion of 4-GX.
The 4-GX was orally administered in a single dose dissolved in 100 ml of water.
From here on, the optimum dose of 0.5 g of 4-GX (or 0.45 g in a 4-GX sample including 10 wt % water) was used in the 4-GX urine test for the diagnosis of intestinal lactase deficiency by the non-invasive method described in the present invention. This dose was dissolved in 100 ml water, and following the test protocol, 2 samples of urine excreted during the 5 hours following the administration of the drug were taken, in two interval groups: at 4 hours following administration of 4-GX and at 5 hours following administration of 4-GX.
From the data obtained from the various urine tests for intestinal lactase deficiency following oral ingestion of 4-GX described in the present invention, a descriptive statistical analysis was performed of the amount of xylose excreted in the urine up to 4 hours and up to 5 hours following said administration. The same was done with the blodd test for intestinal lactase activity following oral ingestion of 4-GX, where descriptive statistical analysis was performed on the amount of xylose present in the plasma of subjects at 90 minutes following administration of 4-GX. The net increase in the plasma xylose concentration compared to basal values was also calculated.
To obtain the statistical parameters of lactase determination using the various 4-GX tests described in the present invention and later to compare them with the results obtained from the intestinal biopsy test, hydrogen in exhaled air test and capillary-blood glucose test, the normal limits of the measurement of the total amount of xylose excreted in 4-hour and 5-hour urine and the concentration of blood xylose after 90 minutes following ingestion of 4-GX described in Table 5 were used. The normal limits for the other tests were those used in common clinical practice for the diagnosis of lactose intolerance (Arola, H. (1994) Diagnosis of hypolactasia and lactose malabsorption. Scand. J. Gastroenterol. […] (Suppl), 26-35), which are:
For the measurement of lactase by intestinal biopsy, the lower normal limit is established at 10 units/g protein, with values less than this being considered positive.

[3] = 0.5 g 4-GX, 0-4 h urine, cut-off 27.58 mg, 205 patients
[4] = 0.5 g 4-GX, 4-hour urine, lactase in intestinal biopsy as gold standard
[5] = 4-hour urine, after correcting biopsy diagnosis
[6] = 4-hour urine, after correction of the biopsy diagnostic result (five discrepancies)
[7] = 4-hour urine, after correction of the biopsy diagnostic result (four discrepancies)
[8] = 4-hour urine, biopsy as gold standard
[9] = 4-hour urine, final criteria of Table 9

T1 sequence (P09848 869-1927): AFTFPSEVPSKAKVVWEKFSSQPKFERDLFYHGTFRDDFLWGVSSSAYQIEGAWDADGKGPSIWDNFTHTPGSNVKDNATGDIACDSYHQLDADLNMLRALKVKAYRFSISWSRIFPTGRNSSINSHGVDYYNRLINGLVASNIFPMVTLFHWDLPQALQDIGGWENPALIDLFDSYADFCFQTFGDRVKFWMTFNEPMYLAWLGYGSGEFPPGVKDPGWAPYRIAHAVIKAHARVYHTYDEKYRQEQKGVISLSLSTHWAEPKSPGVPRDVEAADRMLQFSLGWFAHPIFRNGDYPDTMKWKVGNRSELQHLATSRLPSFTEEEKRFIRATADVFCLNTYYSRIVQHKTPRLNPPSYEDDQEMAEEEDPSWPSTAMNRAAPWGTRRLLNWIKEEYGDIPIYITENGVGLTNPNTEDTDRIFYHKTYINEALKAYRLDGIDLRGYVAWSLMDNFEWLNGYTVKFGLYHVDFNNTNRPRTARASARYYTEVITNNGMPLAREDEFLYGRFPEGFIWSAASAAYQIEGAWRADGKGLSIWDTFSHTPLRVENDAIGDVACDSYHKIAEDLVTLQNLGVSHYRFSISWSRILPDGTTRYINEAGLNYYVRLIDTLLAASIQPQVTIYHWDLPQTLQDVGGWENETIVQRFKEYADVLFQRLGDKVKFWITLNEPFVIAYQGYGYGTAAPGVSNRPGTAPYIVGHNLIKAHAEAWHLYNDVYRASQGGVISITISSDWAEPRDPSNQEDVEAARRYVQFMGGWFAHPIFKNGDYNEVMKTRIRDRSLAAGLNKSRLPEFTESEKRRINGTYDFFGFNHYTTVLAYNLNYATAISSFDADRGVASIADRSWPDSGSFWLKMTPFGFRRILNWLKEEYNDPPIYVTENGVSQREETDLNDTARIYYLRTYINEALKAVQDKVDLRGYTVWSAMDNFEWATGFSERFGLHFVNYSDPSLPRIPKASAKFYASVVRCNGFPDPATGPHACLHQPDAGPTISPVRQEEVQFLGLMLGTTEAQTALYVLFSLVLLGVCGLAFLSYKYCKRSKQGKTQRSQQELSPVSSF

O=C[C@H](O)[C@@H](O)[C@@H](CO)O[C@@H]1O[C@H](CO)[C@H](O)[C@H](O)[C@H]1O [4-GX, 4-O-β-galactopyranosyl-D-xylose] was tested, and the “lowest dose of 4-GX for which excretion of xylose in urine can be distinguished from placebo” value (intestinal lactase [1]) was 0.5 g, the “No. Negative” value (intestinal lactase [2]; [3]) was 100 and the “No. Positive (patients presenting intestinal lactase deficiency)” value (intestinal lactase [2]; [3]) was 105. The “Percentage of patients negative” value (intestinal lactase [2]; [3]) was 49%, the “Percentage of patients positive” value (intestinal lactase [2]; [3]) was 51.2% and 51% and the Negative predictive value (intestinal lactase [2]; [4]) was 90%. For the same compound, the Positive predictive value (intestinal lactase [2]; [4]) was 93.3% and 93.33%, the Sensitivity (intestinal lactase [2]; [4]) was 90.7% and 90.74% and the Specificity (intestinal lactase [2]; [4]) was 92.8% and 92.78%. The “sensitivity calculated using the ROC curves” value (intestinal lactase [2]; 4-hour urine samples) was 90.7%, the “specificity calculated using the ROC curves” value (intestinal lactase [2]; 4-hour urine samples) was 93.8% and the “range of recalculated sensitivity, specificity, positive and negative predictive values” (intestinal lactase [2]; 4-hour urine test, after correcting biopsy diagnosis) was 96.00-98.10. For the same compound, the false negatives (intestinal lactase [2]; [5]) was 3.74%, the negative likelihood ratio (intestinal lactase [2]; [5]) was 0.038 and the positive likelihood ratio (intestinal lactase [2]; [5]) was 47.168. The Negative predictive value (intestinal lactase [2]; [6]) was 96.00%, the Positive predictive value (intestinal lactase [2]; [6]) was 98.10% and the Sensitivity (intestinal lactase [2]; [6]) was 96.26%. It also gave a Specificity (intestinal lactase [2]; [6]) of 97.96%, a Negative predictive value (intestinal lactase [2]; [7]) of 97.00% and a Positive predictive value (intestinal lactase [2]; [7]) of 99.05%. The Sensitivity (intestinal lactase [2]; [7]) was 97.20%, the Specificity (intestinal lactase [2]; [7]) was 98.98% and the “area under the ROC curve” value (intestinal lactase [2]; [8]) was 0.9282. For the same compound, the false negatives (intestinal lactase [2]; [8]) was 9.3%, the false positives (intestinal lactase [2]; [8]) was 7.2% and the “concordant positive results, percentage” value (intestinal lactase [2]; [9]) was 96.3%. The “final number of concordant positive results” value (intestinal lactase [2]; [9]) was 103, the “negative results (concordant), percentage” value (intestinal lactase [2]; [9]) was 98.0% and the “number of negative results (concordant)” value (intestinal lactase [2]; [9]) was 96.
